Data published in the supplement of paper PMC7661543.
± gives the standard deviation of the averaged measurements.

tested on: MDA-MB-231; assay: relative cell number vs DMSO control (72 h) (% of DMSO); higher = less growth inhibition (more cells); conditions: sgRNA knockout: sgNT, 10000 nM
Protocol: (§1)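 QMAP-Seq: a pool of 5 breast cancer cell lines (ZR-75-1, SKBR3, HCC-38, MDA-MB-231, BT-20), each carrying 12 doxycycline-inducible Cas9 sgRNA perturbations (11 knockouts plus non-targeting sgNT), was treated with compounds for 72 h at four 10-fold doses (10 nM-10 uM or 1 nM-1 uM range). Barcodes were amplified and sequenced, and cell number was interpolated from 293T spike-in standard curves. The result is expressed as % of the median of DMSO wells. Two biological replicates.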

SMILES | relative cell number
O=C(c1cc(Cc2n[nH]c(=O)c3ccccc23)ccc1F)N1CCN(C(=O)C2CC2)CC1 [Olaparib] | 93.2 ± 31
O=C(O)C(Cc1c[nH]c2ccccc12)N1C(=O)c2ccccc2C1=O (stereo not given) [RG108] | 79.7 ± 30
CN(C)c1cc(NC(=O)CNC(C)(C)C)c(O)c2c1C[C@H]1C[C@H]3[C@H](N(C)C)C(O)=C(C(N)=O)C(=O)[C@@]3(O)C(O)=C1C2=O [Tigecycline] | 83 ± 9.6
Nc1ccccc1NC(=O)c1ccc(CNC(=O)OCc2cccnc2)cc1 [Entinostat] | 12.5 ± 5.6
Cn1c(CCCC(=O)O)nc2cc(N(CCCl)CCCl)ccc21 [Bendamustine] | 127 ± 3.8
COc1cc2nc(N3CCCN(C)CC3)nc(NC3CCN(Cc4ccccc4)CC3)c2cc1OC | 9.21 ± 8.3
COC(=O)/C=C/C(=O)OC [DimethylFumarate] | 98.8 ± 16
CCN1CCN(c2ccc(Nc3cc(N(C)C(=O)Nc4c(Cl)c(OC)cc(OC)c4Cl)ncn3)cc2)CC1 [BGJ398] | 65.2 ± 12
O=c1ncccn1[C@@H]1O[C@H](CO)[C@@H](O)[C@H]1O [Zebularine] | 72.7 ± 13
C[C@H]1CCC/C=C/[C@@H]2C[C@H](O)C[C@H]2[C@H](O)/C=C/C(=O)O1 [BrefeldinA] | 9.31 ± 2.6
CS(=O)(=O)CCNCc1ccc(-c2ccc3ncnc(Nc4ccc(OCc5cccc(F)c5)c(Cl)c4)c3c2)o1 [Lapatinib] | 38.2 ± 8.8

tested on: BT-20; assay: as above; conditions: sgRNA knockout: sgNT, 10 nM
Protocol: as §1

SMILES | relative cell number
O=C(c1cc(Cc2n[nH]c(=O)c3ccccc23)ccc1F)N1CCN(C(=O)C2CC2)CC1 [Olaparib] | 103 ± 6
O=C(O)C(Cc1c[nH]c2ccccc12)N1C(=O)c2ccccc2C1=O (stereo not given) [RG108] | 82.3 ± 16
CN(C)c1cc(NC(=O)CNC(C)(C)C)c(O)c2c1C[C@H]1C[C@H]3[C@H](N(C)C)C(O)=C(C(N)=O)C(=O)[C@@]3(O)C(O)=C1C2=O [Tigecycline] | 104 ± 12
Nc1ccccc1NC(=O)c1ccc(CNC(=O)OCc2cccnc2)cc1 [Entinostat] | 105 ± 2.6
Cn1c(CCCC(=O)O)nc2cc(N(CCCl)CCCl)ccc21 [Bendamustine] | 90.6 ± 14
COc1cc2nc(N3CCCN(C)CC3)nc(NC3CCN(Cc4ccccc4)CC3)c2cc1OC | 82 ± 20
COC(=O)/C=C/C(=O)OC [DimethylFumarate] | 105 ± 18
CCN1CCN(c2ccc(Nc3cc(N(C)C(=O)Nc4c(Cl)c(OC)cc(OC)c4Cl)ncn3)cc2)CC1 [BGJ398] | 80.6 ± 10
O=c1ncccn1[C@@H]1O[C@H](CO)[C@@H](O)[C@H]1O [Zebularine] | 96.6 ± 7.1
C[C@H]1CCC/C=C/[C@@H]2C[C@H](O)C[C@H]2[C@H](O)/C=C/C(=O)O1 [BrefeldinA] | 84.9 ± 25
CS(=O)(=O)CCNCc1ccc(-c2ccc3ncnc(Nc4ccc(OCc5cccc(F)c5)c(Cl)c4)c3c2)o1 [Lapatinib] | 96.3 ± 16

same assay, conditions: sgRNA knockout: sgNT, 100 nM

SMILES | relative cell number
O=C(c1cc(Cc2n[nH]c(=O)c3ccccc23)ccc1F)N1CCN(C(=O)C2CC2)CC1 [Olaparib] | 85.9 ± 12
O=C(O)C(Cc1c[nH]c2ccccc12)N1C(=O)c2ccccc2C1=O (stereo not given) [RG108] | 70.3 ± 4.6
CN(C)c1cc(NC(=O)CNC(C)(C)C)c(O)c2c1C[C@H]1C[C@H]3[C@H](N(C)C)C(O)=C(C(N)=O)C(=O)[C@@]3(O)C(O)=C1C2=O [Tigecycline] | 97.4 ± 4.4
Nc1ccccc1NC(=O)c1ccc(CNC(=O)OCc2cccnc2)cc1 [Entinostat] | 103 ± 22
Cn1c(CCCC(=O)O)nc2cc(N(CCCl)CCCl)ccc21 [Bendamustine] | 114 ± 25
COc1cc2nc(N3CCCN(C)CC3)nc(NC3CCN(Cc4ccccc4)CC3)c2cc1OC | 91.6 ± 8.2
COC(=O)/C=C/C(=O)OC [DimethylFumarate] | 98.2 ± 2.9
CCN1CCN(c2ccc(Nc3cc(N(C)C(=O)Nc4c(Cl)c(OC)cc(OC)c4Cl)ncn3)cc2)CC1 [BGJ398] | 104 ± 1.5
O=c1ncccn1[C@@H]1O[C@H](CO)[C@@H](O)[C@H]1O [Zebularine] | 83.6 ± 14
C[C@H]1CCC/C=C/[C@@H]2C[C@H](O)C[C@H]2[C@H](O)/C=C/C(=O)O1 [BrefeldinA] | 25.6 ± 6.2
CS(=O)(=O)CCNCc1ccc(-c2ccc3ncnc(Nc4ccc(OCc5cccc(F)c5)c(Cl)c4)c3c2)o1 [Lapatinib] | 84.7 ± 12

same assay, conditions: sgRNA knockout: sgNT, 1000 nM

SMILES | relative cell number
O=C(c1cc(Cc2n[nH]c(=O)c3ccccc23)ccc1F)N1CCN(C(=O)C2CC2)CC1 [Olaparib] | 73.2 ± 6.7
O=C(O)C(Cc1c[nH]c2ccccc12)N1C(=O)c2ccccc2C1=O (stereo not given) [RG108] | 102 ± 4.9
CN(C)c1cc(NC(=O)CNC(C)(C)C)c(O)c2c1C[C@H]1C[C@H]3[C@H](N(C)C)C(O)=C(C(N)=O)C(=O)[C@@]3(O)C(O)=C1C2=O [Tigecycline] | 112 ± 24
Nc1ccccc1NC(=O)c1ccc(CNC(=O)OCc2cccnc2)cc1 [Entinostat] | 50.9 ± 7.8
Cn1c(CCCC(=O)O)nc2cc(N(CCCl)CCCl)ccc21 [Bendamustine] | 112 ± 33
COc1cc2nc(N3CCCN(C)CC3)nc(NC3CCN(Cc4ccccc4)CC3)c2cc1OC | 84.4 ± 5.3
COC(=O)/C=C/C(=O)OC [DimethylFumarate] | 86.1 ± 15
CCN1CCN(c2ccc(Nc3cc(N(C)C(=O)Nc4c(Cl)c(OC)cc(OC)c4Cl)ncn3)cc2)CC1 [BGJ398] | 88.5 ± 15
O=c1ncccn1[C@@H]1O[C@H](CO)[C@@H](O)[C@H]1O [Zebularine] | 88.3 ± 38
C[C@H]1CCC/C=C/[C@@H]2C[C@H](O)C[C@H]2[C@H](O)/C=C/C(=O)O1 [BrefeldinA] | 31.1 ± 3.5
CS(=O)(=O)CCNCc1ccc(-c2ccc3ncnc(Nc4ccc(OCc5cccc(F)c5)c(Cl)c4)c3c2)o1 [Lapatinib] | 78.7 ± 9.5

same assay, conditions: sgRNA knockout: sgNT, 10000 nM

SMILES | relative cell number
O=C(c1cc(Cc2n[nH]c(=O)c3ccccc23)ccc1F)N1CCN(C(=O)C2CC2)CC1 [Olaparib] | 94 ± 7.7
O=C(O)C(Cc1c[nH]c2ccccc12)N1C(=O)c2ccccc2C1=O (stereo not given) [RG108] | 102 ± 14
CN(C)c1cc(NC(=O)CNC(C)(C)C)c(O)c2c1C[C@H]1C[C@H]3[C@H](N(C)C)C(O)=C(C(N)=O)C(=O)[C@@]3(O)C(O)=C1C2=O [Tigecycline] | 118 ± 3.6
Nc1ccccc1NC(=O)c1ccc(CNC(=O)OCc2cccnc2)cc1 [Entinostat] | 19 ± 12
Cn1c(CCCC(=O)O)nc2cc(N(CCCl)CCCl)ccc21 [Bendamustine] | 124 ± 14
COc1cc2nc(N3CCCN(C)CC3)nc(NC3CCN(Cc4ccccc4)CC3)c2cc1OC | 5.57 ± 2.9
COC(=O)/C=C/C(=O)OC [DimethylFumarate] | 84.8 ± 1.5
CCN1CCN(c2ccc(Nc3cc(N(C)C(=O)Nc4c(Cl)c(OC)cc(OC)c4Cl)ncn3)cc2)CC1 [BGJ398] | 82.8 ± 18
O=c1ncccn1[C@@H]1O[C@H](CO)[C@@H](O)[C@H]1O [Zebularine] | 119 ± 24
C[C@H]1CCC/C=C/[C@@H]2C[C@H](O)C[C@H]2[C@H](O)/C=C/C(=O)O1 [BrefeldinA] | 31.5 ± 9.4
CS(=O)(=O)CCNCc1ccc(-c2ccc3ncnc(Nc4ccc(OCc5cccc(F)c5)c(Cl)c4)c3c2)o1 [Lapatinib] | 77 ± 4.7
